Laboratory results: patent publication US20180334453A1, “ISOINDOLINE DERIVATIVES” (VIIV HEALTHCARE UK LIMITED, priority 2015, published 2018)

System: HIV
Test: MT4 assay (anti-HIV activity)
Type: cell-based
Conditions: HTLV-1 transformed cell line MT-4; luciferase activity measured 96 hours later (cell titer glo); 10 point dose response
Experimental: Antiviral HIV activity and cytotoxicity values for compounds of the invention from Table 1 were measured in parallel in the HTLV-1 transformed cell line MT-4 based on the method previously described (Hazen et al., 2007, In vitro antiviral activity of the novel, tyrosyl-based human immunodeficiency virus (HIV) type 1 protease inhibitor brecanavir (GW640385) in combination with other antiretrovirals and against a panel of protease inhibitor-resistant HIV (Hazen et al., “In vitro antiviral activity of the novel, tyrosyl-based human immunodeficiency virus (HIV) type 1 protease inhibitor brecanavir (GW640385) in combination with other antiretrovirals and against a panel of protease inhibitor-resistant HIV”, Antimicrob. Agents Chemother. 2007, 51: 3147-3154; and Pauwels et al., “Sensitive and rapid assay on MT-4 cells for the detection of antiviral compounds against the AIDS virus”, J. of Virological Methods 1987, 16: 171-185).
Luciferase activity was measured 96 hours later by adding a cell titer glo (Promega, Madison, Wis.). Percent inhibition of cell protection data was plotted relative to no compound control. Under the same condition, cytotoxicity of the compounds was determined using cell titer Glo™ (Promega, Madison, Wis.). IC50 s were determined from a 10 point dose response curve using 3-4-fold serial dilution for each compound, which spans a concentration range >1000 fold.
These values are plotted against the molar compound concentrations using the standard four parameter logistic equation:
y=((Vmax*x̂n)/(K̂n+x̂n))+Y2
Y2=minimum y n=slope factor
Vmax=maximum y x=compound concentration [M]

**Q.** `CCO[C@H](C(=O)O)c1c(C)c2c(c(C)c1-c1cc(F)c3c(c1C)CCCO3)CN(C(=O)c1cccc(F)c1)C2` (atropisomer, axis not shown; (M)) [Example 1, (2S)(M)-2-ethoxy-2-((R)-6-(8-fluoro-5-methylchroman-6-yl)-2-(3-fluorobenzoyl)-4,7-dimethylisoindolin-5-yl)acetic Acid] was tested. Which IC50 did it give?
**A.** Its IC50 is 145 nM.

**Q.** How did the IC50 turn out when `Cc1c(-c2c([C@H](OC(C)(C)C)C(=O)O)c(C(F)(F)F)c3c(c2C(F)(F)F)CN(C(=O)c2cccc(F)c2)C3)cc(F)c2c1CCCO2` (atropisomer, axis not shown; (M)) [Example 4, (2S)(M)-2-(tert-butoxy)-2-(6-(8-fluoro-5-methylchroman-6-yl)-2-(3-fluorobenzoyl)-4,7-bisarifluoromethasoindolin-5-yl)acetic Acid] was run?
**A.** Its IC50 is 4 nM.

**Q.** With `Cc1ccc(-c2c([C@H](OC(C)(C)C)C(=O)O)c(C(F)(F)F)c3c(c2C(F)(F)F)CN(C(=O)OCc2ccccc2)C3)cc1` [Example 2, (S)-2-(2-((benzyloxy)carbonyI)-6-(p-tolyl)-4,7-bis(trifluoromethyl)isoindolin-5-yl)-2-(tert-butoxy)acetic Acid] as the compound, how does the IC50 read?
**A.** The IC50 was 4400 nM.

**Q.** How did the IC50 turn out when `Cc1ccc(-c2c([C@H](OC(C)(C)C)C(=O)O)c(C(F)(F)F)c3c(c2C(F)(F)F)CN(C(=O)c2cccc(F)c2)C3)cc1` [Example 3] was run?
**A.** Its IC50 is 5 nM.
